Measurements as given in PubChem BioAssay (NCI).
“And” between values parts separate entries of the source, which are not always exact repeats. Identical values can stand only once.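 Tested at 5 concentrations; 48 h exposure; 96-well plates; endpoints linearly interpolated, else capped at highest concentration. GI50 = concentration required for 50% inhibition of growth. TGI marks complete inhibition of growth.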

Experiments:
Assay in all cases: NCI anticancer screen, dose series, 48 h
SK-MEL-2 melanoma = system: SK-MEL-2 melanoma
MCF7 breast = system: MCF7 breast
SN12C renal = system: SN12C renal
M14 melanoma = system: M14 melanoma
SF-539 CNS = system: SF-539 CNS
HT29 colon = system: HT29 colon
CAKI-1 renal = system: CAKI-1 renal
DMS 273 small cell lung = system: DMS 273 small cell lung
LXFL 529 NSCLC = system: LXFL 529 NSCLC
DLD-1 colon = system: DLD-1 colon

SMILES	GI50 (SK-MEL-2 melanoma)	TGI (SK-MEL-2 melanoma)	GI50 (MCF7 breast)	TGI (MCF7 breast)	GI50 (SN12C renal)	TGI (SN12C renal)	GI50 (M14 melanoma)	TGI (M14 melanoma)	GI50 (SF-539 CNS)	TGI (SF-539 CNS)	GI50 (HT29 colon)	TGI (HT29 colon)	GI50 (CAKI-1 renal)	TGI (CAKI-1 renal)	TGI (DMS 273 small cell lung) [µM]	TGI (LXFL 529 NSCLC) [µM]	TGI (DLD-1 colon) [µM]	GI50 (LXFL 529 NSCLC) [µM]	GI50 (DLD-1 colon) [µM]
CNC(=O)c1cc(Oc2ccc(NC(=O)Nc3cc(C(C)(C)C)nn3-c3ccc4ncccc4c3)c(F)c2)ccn1	1.81 µM and 2.55 µM	4.34 µM and 5.45 µM	1.15 µM and 1.05 µM	9.13 µM and > 53 µM	0.646 µM and 0.484 µM	5.74 µM and 4.68 µM	0.37 µM and 0.395 µM	2.49 µM and 2 µM	2 µM and 1.71 µM	4.62 µM and 3.66 µM	0.52 µM and 0.505 µM	3.65 µM and 5.07 µM	0.523 µM and 0.699 µM	4.65 µM and 4.32 µM					
Cc1c(C(N)=O)sc2nc(C)n(/N=c3\scc(-c4ccccc4)n3Cc3ccccc3)c(=O)c12	3.89 µM	86.6 µM	2.92 µM	> 100 µM	3.84 µM	> 100 µM	3.88 µM	84.5 µM	4.02 µM	> 100 µM	3.04 µM	> 100 µM	3.35 µM	> 100 µM					
O=C(N/C(=C\c1ccc(/C=C(\NC(=O)c2ccccc2)c2nc3c(O)nc(S)nc3[nH]2)cc1)c1nc2c(O)nc(S)nc2[nH]1)c1ccccc1		> 100 µM				> 100 µM		> 100 µM		> 100 µM		> 100 µM		> 100 µM	> 100	> 100	> 100		
Fc1ccc(Nc2nc(Nc3ccc(-c4nc5ccccc5[nH]4)cc3)c3cn[nH]c3n2)cc1	2.11 µM	4.95 µM	1.74 µM	4.12 µM	1.99 µM	4.47 µM	2.01 µM	3.95 µM	1.77 µM	3.48 µM	1.93 µM	4 µM	1.97 µM	5.41 µM					
COc1cc(C(=O)O[C@H](C(=O)NCCCCNC(=O)[C@@H](OC(=O)c2cc(OC)cc3c(C)cccc23)[C@]2(C)CO2)[C@]2(C)CO2)c2cccc(C)c2c1	0.0724 µM		< 0.01 µM	< 0.0355 µM	0.885 µM	2.39 µM	0.0769 µM	0.591 µM	< 0.0385 µM	0.266 µM	0.104 µM	> 100 µM	0.0122 µM	0.0986 µM					
C[C@]12CCC(=O)C[C@@H]1CC[C@@H]1[C@@H]2CC[C@]2(C)[C@@H](OC(=O)N(CCCl)N=O)CC[C@@H]12	3.47 µM	16.8 µM	4.71 µM	> 45.6 µM	0.734 µM	17.9 µM	0.752 µM	22.3 µM	0.069 µM	4.67 µM	2.75 µM	> 39 µM	0.591 µM	12 µM					
Oc1[nH]c2ccccc2c1C=Nc1ccc(-n2cncn2)cc1	> 25 µM	> 25 µM	> 25 µM	> 25 µM	14.6 µM	> 25 µM	> 25 µM	> 25 µM	> 25 µM	> 25 µM	> 23.1 µM	> 25 µM	> 22.7 µM	> 25 µM					
COC(=O)[C@@]12C3=NO[C@]1(C(=O)OC)C(O[Si](C)(C)C(C)(C)C)[C@@H](OC(C)=O)[C@@H](OC(C)=O)[C@@H]2[C@@H](OCc1ccccc1)CC3 (stereo not given in full)		> 100 µM				> 100 µM		> 100 µM		> 100 µM		> 100 µM		> 100 µM	> 100	> 100	> 100		
CSc1nc(SC)c2c(C)cn(COCCOC(=O)c3ccccc3)c2n1		> 100 µM		> 100 µM		> 100 µM		> 100 µM		> 100 µM		> 100 µM		> 100 µM					
COc1ccc2c(c1)[n+]([O-])c(-c1ccccc1Cl)c(N)[n+]2[O-]		> 100 µM				> 100 µM		> 100 µM		> 100 µM		> 100 µM		> 100 µM	> 100	> 100	> 100		
CC(=O)[CH-]C(=O)c1ccccc1.CC(=O)[CH-]C(=O)c1ccccc1.CC(=O)[CH-]C(=O)c1ccccc1.[Ga+3]	10.8 µM	23.6 µM			15 µM	33.2 µM	15.5 µM	30.1 µM	16.5 µM	32.3 µM	20.7 µM	39.1 µM	30.8 µM	80 µM		24.8	53.6	12	16.6
COC1/C(=C\C(C)=O)c2ccccc2N1C(C)=O (stereo not given)		> 100 µM				> 100 µM		> 100 µM		> 100 µM		> 100 µM		> 100 µM	> 100	> 100	> 100		
COC(=O)c1cc2cc(/C=C3/SC(=S)N(N(C(C)=O)C(C)=O)C3=O)oc2n1Cc1ccccc1	40.3 µM	> 100 µM	34.1 µM	> 100 µM	20.7 µM	56 µM	11 µM	40.6 µM	20.4 µM	39.3 µM	37.4 µM	> 100 µM	14.2 µM	40.8 µM					
COc1ccc2c(c1)C(=O)c1c-2n(CCCN(C)C)c(=O)c2cc([N+](=O)[O-])ccc12	0.545 µM	7.17 µM	< 0.01 µM	0.338 µM	< 0.01 µM	10.7 µM	< 0.01 µM	0.0428 µM	< 0.01 µM	< 0.01 µM	< 0.01 µM	0.61 µM	< 0.01 µM						
O=C(NCCNCCO)c1ccc(Nc2nc3ccccc3c3occc23)cc1	20.5 µM	60.3 µM	28 µM	> 100 µM	11.9 µM	24.6 µM	14.9 µM	30.4 µM	12.6 µM	29.4 µM	29.3 µM	> 100 µM	17.3 µM	33.1 µM					
CCN(CC)c1c(C)nnn1C1OC(COC(C)=O)C(OC(C)=O)C(OC(C)=O)C1OC(C)=O (stereo not given)						> 100 µM		> 100 µM		> 100 µM		> 100 µM		> 100 µM		> 100	> 100		
CCN(CC)c1ccc(C2N3CCCCC3[C@@H]3c4[nH]c5ccccc5c4CCN23)cc1 (stereo not given in full)						51.6 µM		64.8 µM		41.6 µM		36.3 µM		> 100 µM	> 100	55.6	> 100		
NC(=O)c1ncn(C2OC(CO)C(O)C2O)c1O (stereo not given)		> 100 µM				> 100 µM		> 100 µM		> 100 µM		46.5 µM		> 100 µM		> 100			
